From patent publication US9029325B2, “Amylin analogues and pharmaceutical compositions thereof” (Novo Nordisk A/S, priority 2011, dated 2015)
Read-outs that look alike come from different tables or passages of the source. Starred links: 1 amine or outer side, 2 acyl side, 3 side chain; linkers in the order of their positions; H or OH if unused. Positions of bridges follow the written chain, without caps; N, C: chain ends. Residues, ends and D or L forms follow the SMILES beside them. Groups on a side chain read outwards from the residue. *: point of attachment. C20 diacid = O=C(O)CCCCCCCCCCCCCCCCCCC(=O)*; γGlu = O=C(O)[C@H](CCC(=O)[*:2])N[*:1]

Assays:
[1] = molecular target: T1, human amylin receptor (amylin 3(a) receptor: human calcitonin receptor + RAMP-3) (Homo sapiens, UniProt O60896+P30988); test: Assay (II)a functional human amylin receptor CRE-luciferase assay; format: cell-based; settings: Table 11
T1 construct: expressed in transfected cells
T1 sequence (P30988 25-474): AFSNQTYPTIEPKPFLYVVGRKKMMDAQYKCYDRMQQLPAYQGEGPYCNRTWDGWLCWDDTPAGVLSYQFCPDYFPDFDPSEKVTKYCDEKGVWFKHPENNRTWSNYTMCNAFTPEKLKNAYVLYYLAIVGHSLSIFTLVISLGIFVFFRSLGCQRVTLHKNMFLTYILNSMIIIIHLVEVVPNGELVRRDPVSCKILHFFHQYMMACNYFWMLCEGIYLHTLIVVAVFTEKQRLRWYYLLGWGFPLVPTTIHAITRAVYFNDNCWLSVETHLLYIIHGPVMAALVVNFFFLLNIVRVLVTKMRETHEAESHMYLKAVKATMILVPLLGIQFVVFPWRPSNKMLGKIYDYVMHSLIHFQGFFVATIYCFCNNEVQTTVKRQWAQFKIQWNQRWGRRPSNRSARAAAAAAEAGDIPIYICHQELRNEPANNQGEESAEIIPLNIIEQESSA
T1 sequence (O60896 24-148 partner): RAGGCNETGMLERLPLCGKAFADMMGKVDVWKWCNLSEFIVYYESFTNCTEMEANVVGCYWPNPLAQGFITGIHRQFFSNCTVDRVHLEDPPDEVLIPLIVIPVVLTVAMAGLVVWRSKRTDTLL
Excerpt: (§1) Activation of calcitonin and amylin (coexpression of calcitonin receptor and receptor activity modifying proteins (RAMP)) receptors lead to increased intracellular concentrations of cAMP. Consequently, transcription is activated by promoters containing multiple copies of the cAMP response element (CRE). It is thus possible to measure amylin activity by the use of a CRE luciferase reporter gene introduced into BHK cells also expressing calcitonin or amylin receptors.
(§2) A BHK570 cell line was stably transfected with the human calcitonin receptor and a CRE-responsive luciferase reporter gene. The cell line was further transfected with RAMP-3, using standard methods. This turns the calcitonin receptor into an amylin 3(a) receptor. Methotrexate, Neomycin, and Hygromycin are selection markers for luciferase, the calcitonin receptor, and RAMP-3, respectively.
(§3) To perform activity assays, BHK calcitonin (a) receptor- or amylin 3(a)-receptor/CRE-luc cells were seeded in white 96 well culture plates at a density of about 20.000 cells/well. […] After incubation overnight at 37° C. and 5% CO2, the growth medium was replaced by 50 μl/well assay medium (DMEM (without phenol red), Glutamax™, 10% FBS, and 10 mM Hepes, pH 7.4). Further, 50 μl/well of standard or sample in assay buffer were added. […] Finally, luminescence was measured on a TopCounter (Packard) in SPC (single photon counting) mode.

[2] = Assay (IV) determination of solubility; format: physicochemical
Procedure: The polypeptide was dissolved in water at −500 nmol/ml and mixed 1:1 with a series of buffers (100 mM glycylglycine pH 3.0, 100 mM glycylglycine pH 4.0, 100 mM glycylglycine pH 5.0, 100 mM bistrispropane pH 6.0, 100 mM bistrispropane pH 6.5, 100 mM bistrispropane pH 7.0, 100 mM bistrispropane pH 7.5, 100 mM bistrispropane pH 8.0). After 18 hours at room temperature the samples were centrifuged and the polypeptide concentration determined by UPLC.

[3] = Assay (I) efficacy testing on appetite (food intake), ad libitum fed rat model; format: in vivo, Sprague Dawley (SD) rats; settings: 3 nmol/kg
Method in brief: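 Ad libitum fed SD rats (200-250 g) on a reversed light cycle, housed individually, received a single 0.01-3 mg/kg dose ip, po or sc just before lights-off. Individual food intake recorded hourly for 7 h, then at 24 h and sometimes 48 h, versus vehicle; Grubbs outliers excluded.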

[4] = molecular target: T2, rat amylin 3(a) receptor (rat calcitonin(a) receptor + rat RAMP3) (Rattus norvegicus, UniProt P32214+Q9JJ73); test: Assay (II)b functional rat amylin receptor cAMP FlashPlate assay; format: cell-based; settings: Table 11
T2 construct: expressed in transfected cells; host or cells: BHK tk'ts 13 (transient, FuGENE 6)
T2 sequence (P32214 25-479 isoform P32214-2 limits assumed): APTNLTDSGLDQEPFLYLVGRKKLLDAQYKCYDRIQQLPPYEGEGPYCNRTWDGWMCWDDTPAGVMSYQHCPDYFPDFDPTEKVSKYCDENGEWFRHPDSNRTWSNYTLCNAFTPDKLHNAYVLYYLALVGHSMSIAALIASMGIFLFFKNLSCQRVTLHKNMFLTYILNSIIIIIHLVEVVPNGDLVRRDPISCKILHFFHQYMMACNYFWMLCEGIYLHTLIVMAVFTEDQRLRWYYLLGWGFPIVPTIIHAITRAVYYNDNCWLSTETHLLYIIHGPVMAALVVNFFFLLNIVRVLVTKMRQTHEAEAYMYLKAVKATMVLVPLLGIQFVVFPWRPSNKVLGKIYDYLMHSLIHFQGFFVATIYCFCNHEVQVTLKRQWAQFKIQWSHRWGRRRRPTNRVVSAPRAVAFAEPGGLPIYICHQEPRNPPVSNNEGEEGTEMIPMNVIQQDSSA
T2 sequence (Q9JJ73 23-147 partner): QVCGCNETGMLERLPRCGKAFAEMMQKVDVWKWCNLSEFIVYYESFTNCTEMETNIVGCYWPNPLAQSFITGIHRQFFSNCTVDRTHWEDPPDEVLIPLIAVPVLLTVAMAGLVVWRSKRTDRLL
Excerpt: (§4) Activation of calcitonin and amylin (coexpression of calcitonin receptor and receptor activity modifying proteins (RAMP)) receptors lead to increased intracellular concentrations of cAMP. In order to quantify the cAMP levels in transiently transfected cells the Adenylyl Cyclase Activation FlashPlate® Assay from Perkin Elmer was used. The basic principle of the FlashPlate® Assay is a competition between radioactive and non-radioactive cAMP generated by the cells for a fixed number of binding sites.
(§5) BHK tk′ts 13 cells were transiently transfected with either rat calcitonin (a) receptor or amylin 3 (a) receptor (rat calcitonin(a) receptor+ rat RAMP3) using FuGENE® 6 (Roche), according to the manufacturers recommendations.
(§6) 24 hours after transient transfection the cells (rat calcitonin(a)—or rat amylin 3(a)—receptor cells) were added (100.000 cells/well) to the 96 well FlashPlates® with samples or standard in FlashPlate stimulation buffer with IBMX and incubated for 30 min. Detection mix was created according to manufacturers protocol and scintillation measured after 3 h of incubation on TopCounter™ (Packard).

[5] = molecular target: T3, human calcitonin receptor (CTa receptor) (Homo sapiens, UniProt P30988); test: Assay (II)a functional human calcitonin receptor CRE-luciferase assay; format: cell-based; settings: Table 11
T3 construct: expressed in transfected cells
T3 sequence (P30988 25-474): T1 sequence (P30988 25-474)
Excerpt: as §1, §2, §3

[6] = molecular target: T4, rat calcitonin (a) receptor (Rattus norvegicus, UniProt P32214); test: Assay (II)b functional rat calcitonin receptor cAMP FlashPlate assay; format: cell-based; settings: Table 11; read-out: CTa receptor rat EC50
T4 construct: expressed in transfected cells; host or cells: BHK tk'ts 13 (transient, FuGENE 6)
T4 sequence (P32214 25-479 isoform P32214-2 limits assumed): T2 sequence (P32214 25-479 isoform P32214-2 limits assumed)
Excerpt: as §4, §5, §6

EC50 [1]: 0.142 nM | solubility at 18 h ([2]; pH 3.0, read-out: Solubility (μM) pH 3.0): > 200 µM | solubility at 18 h ([2]; pH 4.0, read-out: Solubility (μM) pH 4.0): > 200 µM | solubility at 18 h ([2]; pH 5.0, read-out: Solubility (μM) pH 5.0): > 200 µM | solubility at 18 h ([2]; pH 6.0, read-out: Solubility (μM) pH 6.0): > 200 µM | solubility at 18 h ([2]; pH 6.5, read-out: Solubility (μM) pH 6.5): > 200 µM | solubility at 18 h ([2]; pH 7.0, read-out: Solubility (μM) pH 7.0): > 200 µM | solubility at 18 h ([2]; pH 7.5, read-out: Solubility (μM) pH 7.5): > 200 µM | solubility at 18 h ([2]; pH 8.0, read-out: Solubility (μM) pH 8.0): > 200 µM | EC50 [4]: 0.106 nM | EC50 [5]: 0.228 nM | EC50 [6]: 0.437 nM
Structure (SMILES): CC[C@H](C)[C@H](NC(=O)[C@@H]1CCCN1C(=O)CNC(=O)[C@H](Cc1ccccc1)NC(=O)[C@H](CC(N)=O)NC(=O)[C@H](CC(N)=O)NC(=O)[C@H](CO)NC(=O)[C@H](CO)NC(=O)[C@H](Cc1c[nH]cn1)NC(=O)[C@H](Cc1c[nH]cn1)NC(=O)[C@H](CC(C)C)NC(=O)[C@H](Cc1ccccc1)NC(=O)[C@H](CCC(=O)O)NC(=O)[C@H](C)NC(=O)[C@H](CC(C)C)NC(=O)[C@H](CCCNC(=N)N)NC(=O)[C@H](CCC(N)=O)NC(=O)[C@@H](NC(=O)[C@H](C)NC(=O)[C@@H]1CSSC[C@H](NC(=O)[C@@H](N)CCCCNC(=O)CC[C@H](NC(=O)CCCCCCCCCCCCCCCCCCC(=O)O)C(=O)O)C(=O)N[C@@H](CC(N)=O)C(=O)N[C@@H]([C@@H](C)O)C(=O)N[C@@H](C)C(=O)N[C@@H]([C@@H](C)O)C(=O)N1)[C@@H](C)O)C(=O)N[C@@H](CC(C)C)C(=O)N1CCC[C@H]1C(=O)N1CCC[C@H]1C(=O)N[C@H](C(=O)N[C@@H](CC(N)=O)C(=O)N[C@H](C(=O)NCC(=O)N[C@@H](CO)C(=O)N[C@@H](Cc1c[nH]cn1)C(=O)N[C@H](C(=O)N[C@@H](Cc1ccc(O)cc1)C(N)=O)[C@@H](C)O)C(C)C)[C@@H](C)O [compound 87] (H-K([γGlu-C20 diacid])CNTATCATQRLAEFLHHSSNNFGPILPPTNVGSHTY-NH2; disulfide 2-7 (inferred); C-terminus assumed)
Food intake reduction 0-24 h 3 nmol/kg (%) ([3]; 0-24 h): 66% | Food intake reduction 24-48 h 3 nmol/kg (%) ([3]; 24-48 h): 47%
